Experimental data published in article PMC10498151 (RSC Advances, 2023).
In brackets after ≈: the same amount, converted by molar mass. Read-outs that look alike come from different tables or passages of the source.

Experiments:
Fusobacterium nucleatum = assay: microbe, parasite or virus in culture; assay type: cell-based
[1] = determined in PBS buffer ref 47; cited from earlier work
Prevotella spp. = assay type: cell-based
Porphyromonas sp. (CI) = assay: microbe, parasite or virus in culture; assay type: cell-based
[2] = system: Other Bacteroides spp. and Parabacteroides; assay type: cell-based, Bacteroides spp. and Parabacteroides distasonis
Clostridium perfringens = assay type: cell-based
[3] = system: Clostridium sordellii (CI); assay type: cell-based
Clostridium difficile = assay: microbe, parasite or virus in culture; assay type: cell-based
Finegoldia magna (CI) = assay: microbe, parasite or virus in culture; assay type: cell-based
[4] = system: Porphyromonas gingivalis (ATCC 33277); assay: microbe, parasite or virus in culture; assay type: cell-based
[5] = system: Parvimonas micra (ATCC 3870); assay: microbe, parasite or virus in culture; assay type: cell-based
[6] = system: Actinomyces odontolyticus (CI); assay type: cell-based
Bacteroides fragilis = assay: microbe, parasite or virus in culture; assay type: cell-based
[7] = cited from earlier work
[8] = system: Bacteroides thetaiotaomicron (ATCC 29148); assay: microbe, parasite or virus in culture; assay type: cell-based; settings: ATCC29148
[9] = system: Eggerthella lenta (ATCC 43055); assay: microbe, parasite or virus in culture; assay type: cell-based; settings: ATCC43055
[10] = system: Prevotella intermedia/nigres-cens (ATCC 25611); assay: microbe, parasite or virus in culture; assay type: cell-based, Prevotella intermedia/nigrescens; settings: ATCC25611
[11] = system: Porphyromonas asaccharolytica (CI); assay: microbe, parasite or virus in culture; assay type: cell-based
[12] = system: Clostridium butyricum (CI); assay: microbe, parasite or virus in culture; assay type: cell-based
[13] = system: Clostridium sporogenes (ATCC 3584); assay: microbe, parasite or virus in culture; assay type: cell-based; settings: ATCC3584
[14] = system: Bacteroides ovatus (ATCC 84834); assay: microbe, parasite or virus in culture; assay type: cell-based; settings: ATCC84834
[15] = system: Peptostreptococcus anaerobius (CI); assay: microbe, parasite or virus in culture; assay type: cell-based
Cutibacterium acnes = assay: microbe, parasite or virus in culture; assay type: cell-based
Fusobacterium mortiferum = assay: microbe, parasite or virus in culture; assay type: cell-based
C. difficile = C. difficile infection, review ref 25; cited from earlier work
[16] = Fusobacterium nucleatum, ATCC25586
[17] = Clostridioides difficile, ATCC43255
[18] = Porphyromonas gingivalis, ATCC33277
[19] = Bacteroides fragilis, ATCC25285

Compound	Selectivity index (>100 μg mL^−1/MIC90) (Fusobacterium nucleatum)	Selectivity index (>100 μg mL^−1/MIC90) (Prevotella spp.)	Selectivity index (>100 μg mL^−1/MIC90) [2]	Selectivity index (>100 μg mL^−1/MIC90) (Clostridium perfringens)	Selectivity index (>100 μg mL^−1/MIC90) (Bacteroides fragilis)	MIC [8] [mg/L]	MIC [9] [mg/L]	MIC (Fusobacterium nucleatum; [16]) [mg/L]	MIC [10] [mg/L]	MIC (Porphyromonas sp. (CI); Porphyromonas) [mg/L]	MIC [11] [mg/L]	MIC [12] [mg/L]	MIC [13] [mg/L]	MIC (Clostridium difficile; [17]) [mg/L]	MIC (Finegoldia magna (CI); Finegoldia magna) [mg/L]	MIC [14] [mg/L]	MIC ([5]; Parvimonas micra, ATCC3870) [mg/L]	MIC [15] [mg/L]	MIC (Bacteroides fragilis; [19]) [mg/L]	further results
5-phenyl-2,3-dihydropyrimidoquinoxaline N-oxide [1a]	>100	>100	>100	>6	>100															MIC (Fusobacterium nucleatum): 0.125 mg/L; logP: experimental log of the octanol/water partition coefficient [1]: −0.149; MIC (Porphyromonas sp. (CI)): 0.125 mg/L; MIC [3]: 16 mg/L; MIC (Clostridium difficile): 4 mg/L; Selectivity index (>100 μg mL^−1/MIC90) (Clostridium difficile): >25; MIC (Finegoldia magna (CI)): 2 mg/L; Cell viability (RAW 264.7 cells): 98%; MIC [4]: ≤0.06 mg/L; MIC [5]: 0.125 mg/L; MIC [6]: 32 mg/L; MIC (Bacteroides fragilis): 1 mg/L
O=[N+]([O-])c1ccc(C2=NCCCN2c2ccccc2)cc1 [1-phenyl-2-4-nitrophenyl-1,4,5,6-tetrahydropyrimidine]																				pKa [7]: 10.51
[O-][N+]1=C(c2ccc(Cl)cc2)C2=NCCN2c2ccccc21 [1j, 4-(4-Chlorophenyl)-1,2-dihydroimidazo[1,2-a]quinoxaline 5-oxide]	>800	>1667	>800	>100	>800	0.125 (≈ 0.42 µM)	≤ 0.06	≤ 0.06	≤ 0.06	≤ 0.06	≤ 0.06	≤ 0.06	0.25 (≈ 0.84 µM)	0.25 (≈ 0.84 µM)	0.25 (≈ 0.84 µM)	0.125 (≈ 0.42 µM)	≤ 0.06	0.25 (≈ 0.84 µM)	0.125 (≈ 0.42 µM)	logP: experimental log of the octanol/water partition coefficient [1]: 1.292; MIC [4, 18]: ≤ 0.06 mg/L
O=[N+]([O-])c1ccc(C2=[N+]([O-])c3ccccc3N3CCN=C23)cc1 [1k, 4-(4-Nitrophenyl)-1,2-dihydroimidazo[1,2-a]quinoxaline 5-oxide]	>1667	>1667	>1667	>800	>1667	≤ 0.06	≤ 0.06	≤ 0.06	≤ 0.06	≤ 0.06	≤ 0.06	≤ 0.06	≤ 0.06	≤ 0.06	1 (≈ 3.24 µM)	≤ 0.06	≤ 0.06	≤ 0.06	≤ 0.06	Selectivity index (>100 μg mL^−1/MIC90) (Clostridium difficile): >1667; Selectivity index (IS) (RAW 264.7 cells): > 800; MIC (Cutibacterium acnes): 32 mg/L (≈ 104 µM)
Cc1ncc([N+](=O)[O-])n1CCO [Mtz, metronidazole, reference compound]						1 (≈ 5.84 µM)	0.25 (≈ 1.46 µM)	0.125 (≈ 0.73 µM)	1 (≈ 5.84 µM)	0.125 (≈ 0.73 µM)	0.25 (≈ 1.46 µM)	≤ 0.06	0.25 (≈ 1.46 µM)	0.25 (≈ 1.46 µM)	0.125 (≈ 0.73 µM)	1 (≈ 5.84 µM)	0.125 (≈ 0.73 µM)	0.125 (≈ 0.73 µM)	0.25 (≈ 1.46 µM)	MIC (Cutibacterium acnes): > 64 mg/L; MIC [4, 18]: ≤ 0.06 mg/L; MIC (Fusobacterium mortiferum): 0.25 mg/L (≈ 1.46 µM); recurrence after treatment (C. difficile): 27.1%; treatment failure (C. difficile): 22.4%
O=[N+]([O-])c1ccc(C2=NCCN2c2ccccc2)cc1 [its imidazoline homologue]																				pKa [7]: 7.65
CN[C@H](CC(C)C)C(=O)N[C@H]1C(=O)N[C@@H](CC(N)=O)C(=O)N[C@H]2C(=O)N[C@H]3C(=O)N[C@H](C(=O)N[C@H](C(=O)O)c4cc(O)cc(O)c4-c4cc3ccc4O)[C@H](O)c3ccc(c(Cl)c3)Oc3cc2cc(c3O[C@@H]2O[C@H](CO)[C@@H](O)[C@H](O)[C@H]2O[C@H]2C[C@](C)(N)[C@H](O)[C@H](C)O2)Oc2ccc(cc2Cl)[C@H]1O [vancomycin]																				recurrence after treatment (C. difficile): 24.0%; treatment failure (C. difficile): 14.2%
